The values that follow come from US8956878B2, “Polypeptides with affinity for heat shock proteins (HSPS) and HSP associated complexes (HACS) and their use in diagnosis and therapy” (Atlantic Cancer Research Institute, priority 2011, dated 2015).

Data set [1] concerns HACs from sub-cellular extracts. Kind of data set: Fractionation of HACs from sub-cellular extracts. Conditions: as second peptide portion of the polypeptide. From the text: (§1) In another embodiment, the at least one second peptide portion contributes to the selectivity of the affinity of the polypeptide.
Data set [2] deals with vesicular material from culture medium or biological fluid. Kind of data set: Fractionation of vesicular material. Conditions: as second peptide portion of the polypeptide.
Text: as §1

Data set [3] deals with recombinant A. davidanieli HSP70 (adHSP70). Format: binding, Arthrobacter davidanieli. Conditions: for CHIEF complex formation with adHSP70: substance as counter migrant to adHSP70.
In data set [4] the target is human HSP70 (Homo sapiens, UniProt P0DMV8). Kind of data set: CHIEF against recombinant human HSP70. Format: binding. Particulars: 1 μg HSP70, 15 μg peptide.
Data set [5] concerns MDA MB231 cytoplasmic and membrane associated proteins. The experiment in a line: CHIEF against subcellular fractions of MDA MB231 breast cancer cells. Particulars: 80 μg peptide, 10 μg subcellular fraction. It counts as binding. The procedure:
Abbreviations: φ=No peptide added at anode; MBPWT1, MBP100-117_WT1 117-134; MBP, MBP100-117; WT1, WT1 117-134. All peptides applied at cathode at a concentration of 80 μg (sic); subcellular fractions applied at cathode at a concentration of 10 μg. The arrowheads in lanes 2, 6, 10 (top), 14 and 18 (top) indicate expected CHIEF complex focusing near the 6.8 pl marker. The arrowheads in lanes 10 (bottom) and 18 (bottom) indicate the appearance of a CHIEF complex focusing near the 7.4 pl marker. The arrowheads in lane 5 and 19 (top and bottom) indicate where there has been cross over of the MBP117-134WT1 peptide into an adjacent lane causing a drive-by or swipe CHIEF complex formation (lane 5, lane 19).
(§2) The example investigates the possibility that the bMBPWT1 peptide binds HSPs directly from cell lysates in a similar manner to when single recombinant HSP was used as a counter ion. Cancer cells are addicted to the overexpression of HSPs to support growth under poor environmental conditions, to facilitate the function of otherwise unstable oncoproteins and the ablation of apoptosis. Most, if not all, cancer cells should provide a rich source of human HSPs to serve as complex forming counter migrants for the MBP peptide co-synthesised with WT1 and SW peptides. […]

In data set [6] the test system is Nalm-6 cytoplasmic and membrane associated proteins. The experiment in a line: CHIEF against subcellular fractions of Nalm-6 leukemia cells. It counts as binding.
Text: Abbreviations: φ=No peptide added at anode; MBPWT1, MBP100-117_WT1 117-134; MBP, MBP100-117; WT1, WT1 117-134. […] The arrowheads in lanes 2, 6, 10 (top), 14 and 18 (top) indicate expected CHIEF complex focusing near the 6.8 pl marker. The arrowheads in lanes 10 (bottom) and 18 (bottom) indicate the appearance of a CHIEF complex focusing near the 7.4 pl marker. The arrowheads in lane 5 and 19 (top and bottom) indicate where there has been cross over of the MBP117-134WT1 peptide into an adjacent lane causing a drive-by or swipe CHIEF complex formation (lane 5, lane 19).
Three identical lanes were prepared for the generation of CHIEF complexes between MBP100-117WT1 117-134 (80 μg) and 10 μg of Nalm-6 membrane associated proteins.
as §2

Data set [7] deals with glycoprotein 96 (gp96; canine) (Canis lupus familiaris, UniProt P41148). The experiment in a line: CHIEF against gp96 (ER isoform of HSP90). Format: binding. Conditions: IEF gel, counter migrant.
Data set [8] addresses cytoplasmic recombinant human HSP90 (Homo sapiens, UniProt P07900). The experiment in a line: CHIEF against recombinant human HSP90. Format: binding. Conditions: IEF gel, counter migrant.
Data set [9] concerns the target rat HSP70 (Rattus norvegicus, UniProt P0DMW0). Kind of data set: CHIEF against recombinant rat HSP70. It counts as binding. Conditions: 1 μg HSP70, 15 μg peptide.
The test system of data set [10] is SKBR3 cytoplasmic proteins. Kind of data set: CHIEF against SKBR3 cytoplasmic proteins. It counts as binding. Conditions: 7 μg protein per lane. On the procedure:
MBPWT1 peptide was tested as a counter ion to proteins from breast cancer cell line SKBR3. MBP co-synthesised with survivin peptides were also used as alternative sources of counter ions (FIG. 10).
The increased degree of complex formation observed in FIG. 10 prompted a closer evaluation of MBP co-synthesized with the three chosen survivin peptides 20-28, isoform 3 88-96 and 96-104.

Data set [11] deals with T1, Recombinant Mycobacterium tuberculosis HSP70 (Mycobacterium tuberculosis, UniProt P9WMJ9).
T1 construct: purchased Aalto, Eire
Format: binding. Conditions: IEF gel, counter migrant.

The target in data set [12] is Recombinant murine HSP70 (Mus musculus, UniProt Q61696). Kind of data set: CHIEF against recombinant murine HSP70. Format: binding. Particulars: 40 μg peptide.
For data set [13], the system named is MCF7 (breast cancer). Kind of data set: Peptide in extracellular medium of MCF7 cells. Format: cell-based. Particulars: 7-25 μg/mL in extracellular medium, within 24 hours. The procedure: (§3) The alpha helix and flanking sequences may permit the peptides of the application to resist the protease rich medium of cancer cells, a trait shared by human tissue fluids (e.g. serum). […] Since all major cancer causing species rely upon scaffolding by HSPs for stability and function, the peptides may represent a source of direct therapeutic application.
(§4) When the peptides of the present application were included in the extracellular medium of the cancer cell lines (at concentrations of 7-25 μg/mL) such as PC3 (prostate cancer) and MCF7 (breast cancer), there was an inhibition of the protein synthesis and cell lysis within 24 hours. […] Since all major cancer causing species rely upon scaffolding by HSPs for stability and function, the peptides may represent a source of direct therapeutic application.

In data set [14] the test system is PC3 (prostate cancer). Kind of data set: Peptide in extracellular medium of PC3 cells. Conditions: 7-25 μg/mL in extracellular medium, within 24 hours. Format: cell-based. The procedure: as §3, §4

Where two headings read alike, the source gives them in different places.

T1 sequence (P9WMJ9 whole entry): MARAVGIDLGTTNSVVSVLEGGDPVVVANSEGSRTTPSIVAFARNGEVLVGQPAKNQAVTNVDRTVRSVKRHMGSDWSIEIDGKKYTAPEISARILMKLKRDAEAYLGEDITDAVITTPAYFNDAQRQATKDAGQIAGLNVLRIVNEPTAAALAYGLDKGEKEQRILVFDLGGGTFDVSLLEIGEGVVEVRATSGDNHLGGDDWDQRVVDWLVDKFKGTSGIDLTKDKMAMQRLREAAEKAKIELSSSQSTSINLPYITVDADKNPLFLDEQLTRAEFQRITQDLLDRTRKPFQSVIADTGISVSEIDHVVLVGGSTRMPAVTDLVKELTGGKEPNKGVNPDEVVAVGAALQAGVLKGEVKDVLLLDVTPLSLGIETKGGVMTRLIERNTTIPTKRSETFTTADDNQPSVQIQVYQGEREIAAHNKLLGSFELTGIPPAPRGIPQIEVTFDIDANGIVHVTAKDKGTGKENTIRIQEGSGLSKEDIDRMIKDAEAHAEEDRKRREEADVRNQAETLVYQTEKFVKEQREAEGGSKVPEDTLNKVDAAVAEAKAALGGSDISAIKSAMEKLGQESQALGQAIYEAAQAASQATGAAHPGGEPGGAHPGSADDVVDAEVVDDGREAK
Sequence of human HSP70 (P0DMV8 whole entry): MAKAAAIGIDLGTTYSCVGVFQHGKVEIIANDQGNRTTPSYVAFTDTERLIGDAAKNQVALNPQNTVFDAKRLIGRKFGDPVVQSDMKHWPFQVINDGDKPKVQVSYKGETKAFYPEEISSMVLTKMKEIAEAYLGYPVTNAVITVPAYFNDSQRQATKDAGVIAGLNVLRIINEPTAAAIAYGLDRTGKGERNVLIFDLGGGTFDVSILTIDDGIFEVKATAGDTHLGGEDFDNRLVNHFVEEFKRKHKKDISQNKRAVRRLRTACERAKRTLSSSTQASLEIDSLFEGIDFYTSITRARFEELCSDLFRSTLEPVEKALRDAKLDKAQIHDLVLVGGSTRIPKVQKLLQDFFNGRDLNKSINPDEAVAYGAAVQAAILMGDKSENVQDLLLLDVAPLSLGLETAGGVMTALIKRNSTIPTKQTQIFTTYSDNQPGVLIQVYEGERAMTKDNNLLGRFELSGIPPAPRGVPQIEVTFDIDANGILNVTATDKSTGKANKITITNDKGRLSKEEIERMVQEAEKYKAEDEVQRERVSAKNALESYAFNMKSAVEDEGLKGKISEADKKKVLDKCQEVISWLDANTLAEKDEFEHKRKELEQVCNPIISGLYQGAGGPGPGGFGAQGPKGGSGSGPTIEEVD
Sequence of glycoprotein 96 (gp96; canine) (P41148 22-804): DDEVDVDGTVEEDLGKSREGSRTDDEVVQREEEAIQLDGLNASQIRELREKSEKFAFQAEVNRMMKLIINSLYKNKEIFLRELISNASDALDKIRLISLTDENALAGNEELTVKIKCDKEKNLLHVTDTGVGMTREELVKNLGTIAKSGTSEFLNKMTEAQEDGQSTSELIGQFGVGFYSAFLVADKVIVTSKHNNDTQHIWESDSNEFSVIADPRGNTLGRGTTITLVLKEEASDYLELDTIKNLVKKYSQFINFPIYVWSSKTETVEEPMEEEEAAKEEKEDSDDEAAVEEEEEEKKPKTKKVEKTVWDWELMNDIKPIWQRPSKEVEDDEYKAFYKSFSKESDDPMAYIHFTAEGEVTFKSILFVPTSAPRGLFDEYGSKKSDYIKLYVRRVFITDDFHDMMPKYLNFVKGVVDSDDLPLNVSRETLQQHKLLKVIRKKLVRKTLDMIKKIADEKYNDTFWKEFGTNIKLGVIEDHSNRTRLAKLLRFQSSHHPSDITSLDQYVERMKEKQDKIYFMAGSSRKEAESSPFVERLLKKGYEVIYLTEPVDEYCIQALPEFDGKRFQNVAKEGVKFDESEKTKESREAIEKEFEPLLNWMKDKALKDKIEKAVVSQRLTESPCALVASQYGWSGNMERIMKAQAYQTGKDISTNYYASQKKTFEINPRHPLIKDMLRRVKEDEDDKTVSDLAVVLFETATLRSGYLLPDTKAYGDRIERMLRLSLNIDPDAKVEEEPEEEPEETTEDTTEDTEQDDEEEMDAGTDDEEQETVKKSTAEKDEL
Sequence of rat HSP70 (P0DMW0 whole entry): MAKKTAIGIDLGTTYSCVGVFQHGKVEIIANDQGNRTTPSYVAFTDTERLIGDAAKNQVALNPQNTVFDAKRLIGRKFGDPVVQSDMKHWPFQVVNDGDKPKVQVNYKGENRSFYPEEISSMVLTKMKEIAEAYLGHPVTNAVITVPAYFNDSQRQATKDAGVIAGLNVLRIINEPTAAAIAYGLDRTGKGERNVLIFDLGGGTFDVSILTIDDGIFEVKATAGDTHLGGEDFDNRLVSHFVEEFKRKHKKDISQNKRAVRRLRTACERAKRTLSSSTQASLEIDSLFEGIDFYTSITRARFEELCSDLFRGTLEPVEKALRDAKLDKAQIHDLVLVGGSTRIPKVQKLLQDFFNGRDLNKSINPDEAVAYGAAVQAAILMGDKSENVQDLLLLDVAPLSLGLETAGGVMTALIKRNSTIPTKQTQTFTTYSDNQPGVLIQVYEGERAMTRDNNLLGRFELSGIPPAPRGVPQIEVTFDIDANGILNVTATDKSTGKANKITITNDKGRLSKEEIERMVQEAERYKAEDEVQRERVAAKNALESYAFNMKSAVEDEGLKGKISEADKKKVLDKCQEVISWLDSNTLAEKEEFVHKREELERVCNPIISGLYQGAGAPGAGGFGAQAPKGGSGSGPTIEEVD
Sequence of Recombinant murine HSP70 (Q61696 whole entry): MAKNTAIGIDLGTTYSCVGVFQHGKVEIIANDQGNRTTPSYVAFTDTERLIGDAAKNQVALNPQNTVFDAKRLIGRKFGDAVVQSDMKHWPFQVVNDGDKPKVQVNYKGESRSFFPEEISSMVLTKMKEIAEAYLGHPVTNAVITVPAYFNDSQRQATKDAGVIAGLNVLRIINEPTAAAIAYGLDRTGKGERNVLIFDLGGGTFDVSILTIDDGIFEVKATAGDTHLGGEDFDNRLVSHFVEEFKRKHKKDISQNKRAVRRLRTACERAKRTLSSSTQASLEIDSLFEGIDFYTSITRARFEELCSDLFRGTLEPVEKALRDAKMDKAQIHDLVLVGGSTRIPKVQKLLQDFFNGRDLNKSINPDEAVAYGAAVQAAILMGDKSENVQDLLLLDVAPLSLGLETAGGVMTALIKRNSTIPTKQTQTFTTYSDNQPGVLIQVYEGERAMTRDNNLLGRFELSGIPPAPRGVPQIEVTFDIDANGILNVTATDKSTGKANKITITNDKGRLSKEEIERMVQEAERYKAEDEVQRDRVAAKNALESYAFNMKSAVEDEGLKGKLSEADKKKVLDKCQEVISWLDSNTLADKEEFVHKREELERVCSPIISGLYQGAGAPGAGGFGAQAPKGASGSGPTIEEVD

As to “LRRKCAVPS (listed as Homo sapiens) [SEQ ID NO: 9]”, in data set [1], the “efficiency of fractionating HACs from sub-cellular extracts” value is given as “more efficiently fractionated”.

As to “LTLGEFLKL (listed as Homo sapiens) [SEQ ID NO: 8]”, the “efficiency of fractionating vesicular material” value in data set [2] was “more efficient”.

On to “MBP 62-78: candidate binding peptide, residues 62-78 of bovine myelin basic protein (ARTTHYGSLPQKAQGHR)”, for which the “CHIEF complex formation with adHSP70” value in data set [3] (IEF gel) is on record as “negligible binding”.

As to “MBPWT1: MBP peptide 100-117 co-synthesised with Wilms tumor protein 1 peptide 117-134 (PSQGKGRGLSLSRFSWGAPSQASSGQARMFPNAPYL)”, in data set [4], the “CHIEF complex formation with human HSP70” value was “Some evidence of counter migrant complex formation”. Besides, the “CHIEF complex formation with MDA MB231 cytoplasmic proteins” value in data set [5] is listed as “yielded similar CHIEF complexes”. In addition, the “CHIEF complex formation with Nalm-6 cytoplasmic proteins” value in [6] (80 μg peptide, 10 μg subcellular fraction) is listed as “yielded similar CHIEF complexes”. Besides, in data set [6] (concentrations below 80 μg), the “CHIEF complex formation with Nalm-6 proteins at lower peptide amount” value is “occasionally produced only modest complexes”. In addition, the “CHIEF complex formation with gp96” value in [7] is given as “produced complexes”. Also, the “CHIEF complex formation with adHSP70” value in [3] (IEF gel) is reported as “appeared to augment the formation of the complex”. Also, the “CHIEF complex formation with human HSP90” value in data set [8] is “produced complexes”. Further, the “CHIEF complex formation with rat HSP70” value in data set [9] is “Some evidence of counter migrant complex formation”. The “CHIEF complex formation with SKBR3 proteins” value in data set [10] is on record as “Small counter migrant complexes formed”.

As to “PSQGKGRGLSLSRFSWGA (listed as Bos taurus) [SEQ ID NO: 2]”, the figures for the “CHIEF complex formation with M. tuberculosis HSP70” value in [11] (listed as 100-117) and in data set [11] (listed as MBP peptide) were “produced counter ion complexes” and “counter migrant complex formed”, respectively. Moreover, in [3] (100 μg peptide, 2 μg adHSP70), the “effect of high peptide concentration on complex formation with adHSP70” value was “appears to inhibit complex formation”. The “CHIEF complex formation with adHSP70” value in [3] (IEF gel, listed as 100-117) is on record as “produced counter ion complexes”; in [3] (IEF gel, listed as MBP 100-117), “binding”; in data set [3] (IEF gel, listed as MBP peptide), “far more limited complex formation”. Also, in data set [12], the “CHIEF complex formation with murine HSP70” value was “complexed”.

“PSQGKGRGLSLSRFSWGALRRKCAVPS [SEQ ID NO: 66]”: the “effect on protein synthesis and cell lysis, MCF7” value in data set [13] is “drastic inhibition of protein synthesis and cell lysis”. Besides, the “CHIEF complex formation with SKBR3 proteins” value in data set [10] is “much larger band formed”. Moreover, the “effect on protein synthesis and cell lysis, PC3” value in [14] is “drastic inhibition of protein synthesis and cell lysis”.

On to “WT1 117-134: Wilms tumor protein 1 peptide 117-134 (PSQASSGQARMFPNAPYL) [reference compound]”, for which the “CHIEF complex formation with adHSP70” value in data set [3] (IEF gel) is given as “no evidence of binding”; in [3] (IEF gel, listed as WT1), “limited complex formation”.

In the case of carbonic anhydrase, the “CHIEF complex formation with adHSP70” value in data set [3] (IEF gel) is listed as “did not interact”.

As for histone 2A, the “CHIEF complex formation with adHSP70” value in data set [3] (IEF gel) is “yielded an identical complex”.

Consider lysozyme, for which the “CHIEF complex formation with M. tuberculosis HSP70” value in [11] was “complexed”. The “CHIEF complex formation with adHSP70” value in [3] (IEF gel) is recorded as “did bind”.

For myoglobin, the “CHIEF complex formation with adHSP70” value in data set [3] (IEF gel) was “did not interact”.

In the case of trypsinogen, the “CHIEF complex formation with adHSP70” value in [3] (IEF gel) was “did not interact”.

B1: Bovine myelin basic protein (protein)
chain: AAQKRPSQRSKYLASASTMDHARHGFLPRHRDTGILDSLGRFFGSDRGAPKRGSGKDGHHAARTTHYGSLPQKAQGHRPQDENPVVHFFKNIVTPRTPPPSQGKGRGLSLSRFSWGAEGQKPGFGYGGRASDYKSAHKGLKGHDAQGTLSKIFKLGGRDSRSGSPMARR
B1: the “CHIEF complex formation with M. tuberculosis HSP70” value in data set [11] is recorded as “complexed”. Moreover, the “focusing position (pI marker) of CHIEF complex with adHSP70” value in [3] (IEF gel) was ~6.5. Also, the “CHIEF complex formation with adHSP70” value is listed as “bound” in [3] (IEF gel) and “binding” in data set [3] (IEF gel, listed as MBP).
